This is an account of results in publication PMC4791210 (International immunopharmacology, 2015).

Experiment [1] concerns human neutrophils. Conditions: cited from earlier work; for Inhibition of fMLF-induced Ca2+ mobilization in human neutrophils / Inhibition of fMLF-induced Ca2+ flux in neutrophils: result in words. (In general: Calcium assays in cells follow changes in intracellular calcium, usually with a dye or a luminescent sensor.)
The subject of experiment [2] is human neutrophils. The experiment is described as follows: Direct activation of Ca2+ flux in human neutrophils. The format is cell-based. Conditions: Neutrophil, read-out: Human Neutrophils Activation (EC50, μM).
For experiment [3], the target named is T1, FPR1 (Homo sapiens, UniProt P21462).
T1 sequence (P21462 1-350): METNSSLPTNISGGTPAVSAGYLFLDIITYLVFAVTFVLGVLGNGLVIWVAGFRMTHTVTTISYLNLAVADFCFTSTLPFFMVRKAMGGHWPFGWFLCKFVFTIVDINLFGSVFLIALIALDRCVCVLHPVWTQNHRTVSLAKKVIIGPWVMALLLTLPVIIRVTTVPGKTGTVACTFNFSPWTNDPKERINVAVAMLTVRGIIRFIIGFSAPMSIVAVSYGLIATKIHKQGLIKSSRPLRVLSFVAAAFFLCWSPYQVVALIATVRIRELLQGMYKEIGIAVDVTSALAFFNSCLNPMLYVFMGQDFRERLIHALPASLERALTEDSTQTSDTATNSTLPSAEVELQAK
The experiment can be described thus: Direct activation of Ca2+ flux in FPR1 transfected HL-60 cells. The format is cell-based.

Experiment [4] concerns fMLF-stimulated neutrophils. Conditions: list of responses inhibited; ref per compound in References column of Table 1; cited from earlier work.
For experiment [5], the system named is human neutrophils. Conditions: result in words; no data shown; cited from earlier work.
Experiment [6] addresses T1, FPR1. Conditions: result in words; no data shown; cited from earlier work.
In experiment [7] the target is T1, FPR1. Conditions: result in words; cited from earlier work.
Experiment [8] addresses T1, FPR1. Conditions: cited from earlier work.
Another experiment has as its system rat neutrophils. Conditions: fMLF-stimulated rat neutrophils, cited from earlier work.
A further experiment has as its system neutrophils. Conditions: read-out: IC50, inhibition of fMLF-stimulated neutrophil degranulation; cited from earlier work.
The target of experiment [9] is T1, FPR1. Conditions: human neutrophils; cited from earlier work.
The test system of the next experiment is FPR2. Conditions: cited from earlier work.
For experiment [10] the following is noted: animal experiments; cited from earlier work.
For experiment [11] the following is noted: animal experiments; cited from earlier work. This is another data set of the same source.
The test system of a further experiment is monocytes. Conditions: read-out: IC50, inhibition of fMLF-induced monocyte locomotion; cited from earlier work.
The subject of experiment [12] is FPR1. Conditions: cited from earlier work.
For experiment [13], the target named is T1, FPR1. Conditions: read-out: IC50, displacement of [3H]-fMLF; FPR1-transfected RBL cells; cited from earlier work. A general note: Loss of bound radioactivity is the signal in a displacement assay; it reports binding, not function.
Experiment [14] relates to FPR1. Conditions: high concentrations; cited from earlier work.

Take `O=c1c(-c2ccc(O)cc2)coc2cc(O)ccc12` [daidzein]: in the experiment with human neutrophils [1], the “Inhibition of fMLF-induced Ca2+ mobilization in human neutrophils” value (“Inhibition … in human neutrophils” for short) was “none”.
The term EC50 denotes the concentration giving half of the maximal effect. With `CC(C)=CCOc1c2occc2cc2ccc(=O)oc12` [Imperatorin], the half-maximal effective concentration (EC50) in the experiment with human neutrophils [2] is 31.1 ± 3.6 µM; at FPR1 [3], 50.9 ± 4.7 µM. Also, the “fMLF-induced Responses Inhibited in Neutrophils” value (shortened to “fMLF-induced Responses Inhibited”) in experiment [4] is recorded as “O2^−· production”.
Take `COc1ccc(-c2coc3cc(O)cc(O)c3c2=O)cc1` [Biochanin A]: in the experiment with human neutrophils [5], the “Direct agonist activity in primary neutrophils” value was “direct agonist activity”. Also, in the experiment with human neutrophils [1], the “Inhibition … in human neutrophils” value is “inhibited”. The “Direct agonist activity in FPR1-HL60 cells” value at FPR1 [6] is reported as “direct agonist activity”. Moreover, the “Inhibition of fMLF-induced Ca2+ flux in FPR1-HL60 cells” value on FPR1 [7] is “inhibited”. Also, on FPR1 [8], the “Inhibition of binding of labeled ligand (WKYMVm-FITC) to FPR1-HL60 cells” value was “did not inhibit binding”.
Usually IC50 stands for the concentration that inhibits the measured activity by half. Turning to `C[C@H](CCC(=O)NCCS(=O)(=O)O)[C@H]1CC[C@H]2[C@@H]3[C@@H](O)C[C@@H]4C[C@H](O)CC[C@]4(C)[C@H]3CC[C@]12C` [tauroursodeoxycholic acid], in the experiment on human neutrophils [1] (read-out: IC50, inhibition of fMLF-induced Ca2+ mobilization), the IC50 was roughly 500 µM.
On to `C=C(C)C(O)Cc1c(O)ccc2ccc(=O)oc12` (stereo not drawn) [Demethylauraptenol], for which, in experiment [4], the “fMLF-induced Responses Inhibited” value is “O2^−· production, HNE release”.
As for `CC[C@H](CC[C@@H](C)[C@H]1CC[C@H]2[C@@H]3CC(=O)C4=CC(=O)CC[C@]4(C)[C@H]3CC[C@]12C)C(C)C` [stigmast-4-ene-3,6-dione], the “Concentrations that inhibited O2−· production” value with rat neutrophils was 30 to 100 µM.
Consider `COc1c(O)c(OC)c2c(c1OC)O[C@H](c1ccccc1)CC2=O` [isopedicin], for which, in the experiment with human neutrophils [1], the “Inhibition of fMLF-induced Ca2+ flux in neutrophils” value (“Inhibition … in neutrophils” below) is listed as “did not inhibit”.
Turning to (+)-Episesamin, the “fMLF-induced Responses Inhibited” value in experiment [4] is recorded as “O2^−· production, HNE release”.
For the compound `COc1ccc(-c2coc3cc(O)ccc3c2=O)cc1` [formononetin], the “Inhibition … in human neutrophils” value with human neutrophils [1] is reported as “none”.
On to `O=c1c(-c2ccc(O)cc2)coc2cc(O)cc(O)c12` [genistein], for which the “Inhibition … in human neutrophils” value in the experiment on human neutrophils [1] was “none and did not antagonize”. Moreover, the “Inhibition of fMLF-induced Ca2+ flux in FPR1-HL60 cells” value on FPR1 [7] is “did not antagonize”.
Take `COc1ccc(-c2coc3cc(O)c(OC)cc3c2=O)cc1` [afrormosin]: in the experiment on human neutrophils [1], the “Inhibition … in human neutrophils” value is listed as “none”. In the experiment with neutrophils, the concentration for half-maximal inhibition (IC50) was roughly 67 µM.
Turning to Aristolatams IIIa, the “fMLF-induced Responses Inhibited” value in experiment [4] is “O2^−· production, HNE release”.
As to `O=c1c(-c2ccccc2)coc2cc(O)ccc12` [7-hydroxyisoflavone], the “Inhibition … in human neutrophils” value in the experiment on human neutrophils [1] was “none”.
In the case of `C=C(C)[C@@H]1CC[C@]2(C(=O)O)CC[C@]3(C)[C@H](CC[C@@H]4[C@@]5(C)CC[C@@H](O)C(C)(C)[C@@H]5CC[C@]43C)[C@@H]12` [Epibetulinic acid], the “fMLF-induced Responses Inhibited” value in experiment [4] is “O2^−· production”.
In the case of Lawsochylin A, the “fMLF-induced Responses Inhibited” value in experiment [4] was “O2^−· production, HNE release”.
`COc1ccc(CCN(C)C(=O)/C=C/c2ccc(O)cc2)cc1` [Ailanthamide]: the “fMLF-induced Responses Inhibited” value in experiment [4] is “O2^−· production, HNE release”.
In the case of `COc1cc(O)c2c(=O)c(OC)c(-c3ccc(O)c(OC)c3)oc2c1` [MSF-2, 5-hydroxy-2-(4-hydroxy-3-methoxyphenyl)-3,7-dimethoxy-4H-chromen-4-one], at FPR1 [9], the “Interference with fMLF binding” value is recorded as “did not interfere”.
For the compound `COc1c(O)ccc2c1cnc1c3cc4c(cc3ccc21)OCO4` [Decarine], the “fMLF-induced Responses Inhibited” value in experiment [4] is given as “O2^−· production, HNE release”.
In the case of cyclosporine H [CsH], the “Inhibitory effects on FPR2-mediated cellular functions” value in the experiment on FPR2 is listed as “did not exhibit any obvious inhibitory effects”. In experiment [10], the “Effect on fMLF-induced analgesia” value is “blocked”. For the same compound, in experiment [11], the “Effect on acute inflammatory response evoked by cigarette smoke” value was “attenuated”.
On to `C=C1[C@H]2[C@@H]([C@@H](C(C)C)C[C@@H]1O)[C@H]1O[C@@H]2C[C@](C)(O)[C@@H](OC(=O)Cc2ccccc2)CC[C@@]1(C)OC(=O)CCC` [Klymollin M], for which the “fMLF-induced Responses Inhibited” value in [4] was “O2^−· production, HNE release”.
In the case of Berryammone A, the “fMLF-induced Responses Inhibited” value in [4] is reported as “O2^−· production, HNE release”.
`CC[C@H](CC[C@@H](C)[C@H]1CC[C@H]2[C@@H]3CC(=O)C4CC(=O)CC[C@]4(C)[C@H]3CC[C@]12C)C(C)C` (stereo partly drawn) [stigmastane-3,6-dione]: the “Inhibition of O2−· production” value with rat neutrophils (result in words) was “non-active”.
For `C=C(CO)[C@@H]1CC[C@]2(C)CC[C@]3(C)[C@H](CC[C@@H]4[C@@](C)(CC(=O)O)[C@H](C(C)(C)C(=O)O)CC[C@]43C)[C@@H]12` [Triterpene 17, 30-hydroxy-2,3-seco-lup-20(29)-ene-2,3-dioic acid], in experiment [4], the “fMLF-induced Responses Inhibited” value is on record as “O2^−· production, HNE release”.
For `COc1cc(CCCc2c(OC)cc(O)c(OC)c2OC)ccc1O` [Viscolin], the “Inhibition … in neutrophils” value in the experiment on human neutrophils [1] is “did not inhibit”.
Consider `COc1c2ccoc2cc2oc(=O)ccc12` [Bergapten], for which the “fMLF-induced Responses Inhibited” value in experiment [4] is “O2^−· production, HNE release”.
`COc1cc2oc(=O)ccc2c2c1C=CC(C)(C)O2` [Alloxanthoxyletin]: the “fMLF-induced Responses Inhibited” value in [4] is “O2^−· production, HNE release”.
Regarding Lawsonaphthoate A, the “fMLF-induced Responses Inhibited” value in experiment [4] is “O2^−· production, HNE release”.
“cyclized SRSRY: cyclized form of urokinase receptor-derived peptide Ser-Arg-Ser-Arg-Tyr (not fully specified; cyclized; printed: Ser-Arg-Ser-Arg-Tyr)”: the IC50 in the experiment on monocytes is 0.01 nM. In addition, the “Binding of FITC-labeled fMLF to FPR1 transfected cells” value in the experiment with FPR1 [12] was “inhibited binding”.
Consider `COC1=CC(=O)c2cc(-c3ccc(OC)c(O)c3)c3cc(O)c(OC)cc3c2C1=O` [Pterolinus K], for which the “fMLF-induced Responses Inhibited” value in experiment [4] is “O2^−· production, HNE release”.
In the case of `CC(=O)OCC(Cc1ccccc1)NC(=O)C(Cc1ccccc1)NC(=O)c1ccccc1` (stereo not drawn) [Aurantiamide acetate, aurantiamide acetate], the “fMLF-induced Responses Inhibited” value in [4] is given as “O2^−· production”.
As to `C=CCc1ccc(O)c(-c2cc(O)ccc2O)c1` [Randaiol], the “fMLF-induced Responses Inhibited” value in [4] was “O2^−· production and HNE release”.
Take cyclosporine A [CsA]: the IC50 on FPR1 [13] is 1.8 µM. Also, the “Inhibitory effects on FPR2-mediated cellular functions” value with FPR2 is “did not exhibit any obvious inhibitory effects”.
Regarding Berryammone B, the “fMLF-induced Responses Inhibited” value in experiment [4] is on record as “O2^−· production, HNE release”.
`COC(=O)C(C)CCC[C@]1(C)CC[C@]2(O1)C(=O)C(C)=C(C)[C@@]2(O)C(C)=O` (stereo partly drawn) [Hirsutocospiro A]: the “fMLF-induced Responses Inhibited” value in experiment [4] was “O2^−· production, HNE release”.
With `C=C(C)[C@@H](CC=C(C)C)C[C@@]12C[C@@H](CC=C(C)C)C(C)(C)[C@]3(C=CC(C)(C)OC3=C(C(=O)c3ccccc3)C1=O)C2=O` [Garcimultiflorone B], in [4], the “fMLF-induced Responses Inhibited” value is on record as “O2^−· production, HNE release”.
Turning to `C/C(=C/Cc1c(O)cc2oc(C)cc(=O)c2c1O)CO` [Cnidimol A], the “fMLF-induced Responses Inhibited” value in experiment [4] is “O2^−· production, HNE release”.
As to `CC1(C)CC[C@]2(C(=O)O)CC[C@]3(C)C(=CC[C@@H]4[C@@]5(C)CC[C@H](O)C(C)(C)[C@@H]5CC[C@]43C)[C@@H]2C1` [Oleanolic acid], the “fMLF-induced Responses Inhibited” value in [4] is recorded as “O2^−· production, HNE release”.
`C[C@H](CCC(=O)O)[C@H]1CC[C@H]2[C@@H]3CC[C@@H]4C[C@H](O)CC[C@]4(C)[C@H]3C[C@H](O)[C@]12C` [Deoxycholic acid (DCA), Deoxycholic acid]: the EC50 with human neutrophils [2] came to 49 ± 5.4 µM; on FPR1 [3], 40.9 ± 5.5 µM. Besides, the “Concentrations that antagonize FPR1 and inhibit 3H-fMLF binding” value with FPR1 [14] is no less than 100 µM.
`CC(C)=CCc1c(O)ccc2ccc(=O)oc12` [Osthenol]: the “fMLF-induced Responses Inhibited” value in experiment [4] is reported as “O2^−· production, HNE release”.
On to hecogenin, for which the “Concentrations that inhibited O2−· production” value in the experiment with rat neutrophils was 30 to 100 µM.
For `COc1c(C(=O)CCc2ccccc2)c(O)c(O)c2c1/C(=C/c1ccccc1)C(=O)O2` [bractelactone], in the experiment on human neutrophils [1], the “Inhibition … in neutrophils” value is “did not inhibit”.
Take `CC1(C)C=Cc2cc3ccc(=O)oc3cc2O1` [Xanthyletin]: the “fMLF-induced Responses Inhibited” value in experiment [4] was “O2^−· Production, HNE release”.
Consider `Cc1cc2ccc3c(c2cc1O)CCC(=O)C3(C)C` [Flueggrene A], for which, in [4], the “fMLF-induced Responses Inhibited” value is “O2^−· production, HNE release”.
